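How tested: cells in 96-well plates exposed to compound for 48 hours at five concentrations. GI50 is the concentration that inhibits growth by half. Definition used: TGI = concentration required for complete inhibition of growth.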
Assays:
Assay in all cases: NCI-60 cell line screen, 48 h
SR leukemia = tested on: SR leukemia
RPMI-8226 leukemia = tested on: RPMI-8226 leukemia
SF-539 CNS = tested on: SF-539 CNS
SK-MEL-5 melanoma = tested on: SK-MEL-5 melanoma
MDA-MB-231 breast = tested on: MDA-MB-231 breast
EKVX NSCLC = tested on: EKVX NSCLC
DU-145 prostate = tested on: DU-145 prostate
NCI-H23 lung = tested on: NCI-H23 lung
OVCAR-3 ovarian = tested on: OVCAR-3 ovarian
TK-10 renal = tested on: TK-10 renal
MALME-3M melanoma = tested on: MALME-3M melanoma
HCT-116 colon = tested on: HCT-116 colon
IGROV1 ovarian = tested on: IGROV1 ovarian
UACC-62 melanoma = tested on: UACC-62 melanoma
SW-620 colon = tested on: SW-620 colon
NCI-H460 lung = tested on: NCI-H460 lung
RXF 393 renal = tested on: RXF 393 renal
MDA-MB-435 = tested on: MDA-MB-435
SNB-19 CNS = tested on: SNB-19 CNS
COLO 205 colon = tested on: COLO 205 colon
U251 CNS = tested on: U251 CNS
SK-MEL-2 melanoma = tested on: SK-MEL-2 melanoma
NCI-H226 lung = tested on: NCI-H226 lung
HS 578T breast = tested on: HS 578T breast
MOLT-4 leukemia = tested on: MOLT-4 leukemia
HCT-15 colon = tested on: HCT-15 colon
OVCAR-5 ovarian = tested on: OVCAR-5 ovarian
KM12 colon = tested on: KM12 colon
CAKI-1 renal = tested on: CAKI-1 renal
UO-31 renal = tested on: UO-31 renal
HCC-2998 colon = tested on: HCC-2998 colon
SF-295 CNS = tested on: SF-295 CNS
ACHN renal = tested on: ACHN renal
SK-MEL-28 melanoma = tested on: SK-MEL-28 melanoma
HOP-62 NSCLC = tested on: HOP-62 NSCLC
CCRF-CEM leukemia = tested on: CCRF-CEM leukemia
HL-60(TB) leukemia = tested on: HL-60(TB) leukemia
786-0 renal = tested on: 786-0 renal
HOP-92 NSCLC = tested on: HOP-92 NSCLC
MCF7 breast = tested on: MCF7 breast
OVCAR-8 ovarian = tested on: OVCAR-8 ovarian
BT-549 breast = tested on: BT-549 breast
A498 renal = tested on: A498 renal
OVCAR-4 ovarian = tested on: OVCAR-4 ovarian
SN12C renal = tested on: SN12C renal
M14 melanoma = tested on: M14 melanoma
NCI-H522 lung = tested on: NCI-H522 lung
LOX IMVI melanoma = tested on: LOX IMVI melanoma
UACC-257 melanoma = tested on: UACC-257 melanoma
T-47D breast = tested on: T-47D breast
SNB-75 CNS = tested on: SNB-75 CNS
K-562 leukemia = tested on: K-562 leukemia
NCI/ADR-RES ovarian = tested on: NCI/ADR-RES ovarian
SK-OV-3 ovarian = tested on: SK-OV-3 ovarian
HT29 colon = tested on: HT29 colon
SF-268 CNS = tested on: SF-268 CNS
PC-3 prostate = tested on: PC-3 prostate

CC(C)=NNc1ncnc2c1ncn2C1OC(CO)C(O)C1O (stereo unspecified)
GI50 (SR leukemia): 0.414 µM
TGI (SR leukemia): > 22 µM
GI50 (RPMI-8226 leukemia): 0.537 µM
TGI (RPMI-8226 leukemia): 4.04 µM
GI50 (SF-539 CNS): 2.06 µM
TGI (SF-539 CNS): 11.3 µM
GI50 (SK-MEL-5 melanoma): 0.99 µM
TGI (SK-MEL-5 melanoma): 4.2 µM
GI50 (MDA-MB-231 breast): 0.285 µM
TGI (MDA-MB-231 breast): 13.6 µM
GI50 (EKVX NSCLC): 2.95 µM
TGI (EKVX NSCLC): > 73.4 µM
GI50 (DU-145 prostate): 0.324 µM
TGI (DU-145 prostate): 2.4 µM
GI50 (NCI-H23 lung): 1.48 µM
TGI (NCI-H23 lung): 19.4 µM
GI50 (OVCAR-3 ovarian): 0.385 µM
TGI (OVCAR-3 ovarian): 1.97 µM
GI50 (TK-10 renal): 0.529 µM
TGI (TK-10 renal): > 100 µM
GI50 (MALME-3M melanoma): 11.8 µM
TGI (MALME-3M melanoma): > 100 µM
GI50 (HCT-116 colon): 0.144 µM
TGI (HCT-116 colon): 2.07 µM
GI50 (IGROV1 ovarian): 0.287 µM
GI50 (UACC-62 melanoma): 1.21 µM
TGI (UACC-62 melanoma): 9.3 µM
GI50 (SW-620 colon): 0.381 µM
TGI (SW-620 colon): > 100 µM
GI50 (NCI-H460 lung): 0.304 µM
GI50 (RXF 393 renal): 0.3 µM
TGI (RXF 393 renal): 3.54 µM
GI50 (MDA-MB-435): 0.528 µM
TGI (MDA-MB-435): 11.7 µM
GI50 (SNB-19 CNS): 1.43 µM
TGI (SNB-19 CNS): > 100 µM
GI50 (COLO 205 colon): 0.414 µM
TGI (COLO 205 colon): 6.31 µM
GI50 (U251 CNS): 0.648 µM
TGI (U251 CNS): > 100 µM
GI50 (SK-MEL-2 melanoma): 1.81 µM
TGI (SK-MEL-2 melanoma): 29.2 µM
GI50 (NCI-H226 lung): 0.448 µM
TGI (NCI-H226 lung): > 100 µM
GI50 (HS 578T breast): 5.8 µM
TGI (HS 578T breast): > 26.3 µM
GI50 (MOLT-4 leukemia): 4.86 µM
TGI (MOLT-4 leukemia): > 100 µM
GI50 (HCT-15 colon): 0.217 µM
GI50 (OVCAR-5 ovarian): 1.16 µM
TGI (OVCAR-5 ovarian): > 31.1 µM
GI50 (KM12 colon): 0.378 µM
TGI (KM12 colon): 2.65 µM
GI50 (CAKI-1 renal): 0.303 µM
TGI (CAKI-1 renal): 17.1 µM
GI50 (UO-31 renal): 0.354 µM
TGI (UO-31 renal): 7.68 µM
GI50 (HCC-2998 colon): 1.94 µM
TGI (HCC-2998 colon): > 53 µM
GI50 (SF-295 CNS): 0.529 µM
TGI (SF-295 CNS): > 33.2 µM
GI50 (ACHN renal): 0.278 µM
TGI (ACHN renal): 3.24 µM
GI50 (SK-MEL-28 melanoma): 4.5 µM
TGI (SK-MEL-28 melanoma): > 100 µM
GI50 (HOP-62 NSCLC): 0.398 µM
TGI (HOP-62 NSCLC): 4.21 µM
GI50 (CCRF-CEM leukemia): 0.581 µM
TGI (CCRF-CEM leukemia): > 100 µM
GI50 (HL-60(TB) leukemia): 0.402 µM
TGI (HL-60(TB) leukemia): 5.61 µM
GI50 (786-0 renal): 0.72 µM
TGI (786-0 renal): 30.4 µM
GI50 (HOP-92 NSCLC): 0.503 µM
TGI (HOP-92 NSCLC): 5.27 µM
GI50 (MCF7 breast): 0.327 µM
TGI (MCF7 breast): > 51.5 µM
GI50 (OVCAR-8 ovarian): 0.332 µM
TGI (OVCAR-8 ovarian): > 100 µM
GI50 (BT-549 breast): 1.61 µM
TGI (BT-549 breast): 15.4 µM
GI50 (A498 renal): 1.43 µM
TGI (A498 renal): > 100 µM
GI50 (OVCAR-4 ovarian): 0.509 µM
TGI (OVCAR-4 ovarian): > 32.1 µM
GI50 (SN12C renal): 0.476 µM
TGI (SN12C renal): 15.3 µM
GI50 (M14 melanoma): 0.752 µM
TGI (M14 melanoma): > 100 µM
GI50 (NCI-H522 lung): 0.283 µM
TGI (NCI-H522 lung): 3.24 µM
GI50 (LOX IMVI melanoma): 0.228 µM
TGI (LOX IMVI melanoma): 3.25 µM
GI50 (UACC-257 melanoma): 5.75 µM
TGI (UACC-257 melanoma): > 100 µM
GI50 (T-47D breast): 0.542 µM
TGI (T-47D breast): 9.6 µM
GI50 (SNB-75 CNS): 1.34 µM
TGI (SNB-75 CNS): > 78.1 µM
GI50 (K-562 leukemia): 0.417 µM
TGI (K-562 leukemia): > 100 µM
GI50 (NCI/ADR-RES ovarian): 0.442 µM
TGI (NCI/ADR-RES ovarian): > 21.6 µM
GI50 (SK-OV-3 ovarian): 0.324 µM
TGI (SK-OV-3 ovarian): 4.22 µM
GI50 (HT29 colon): 0.268 µM
TGI (HT29 colon): > 100 µM
GI50 (SF-268 CNS): 1.41 µM
TGI (SF-268 CNS): > 100 µM
GI50 (PC-3 prostate): 0.733 µM
TGI (PC-3 prostate): 29.1 µM
